First: Cc1cc(C)cc(-c2cc3c4cc(C)ccc4n(C)c3n(C)c2=O)c1 [Compound 1, 3-(3,5-Dimethylphenyl)-1,6,9-trimethyl-1,9-dihydro-2H-pyrido[2,3-b]indol-2-one]
Second: Cc1ccc2c(c1)c1cc(-c3ccc(Cl)cc3Cl)c(=O)n(C)c1n2C [Compound 2, 3-(2,4-Dichlorophenyl)-1,6,9-trimethyl-1,9-dihydro-2H-pyrido[2,3-b]indol-2-one]
The melting point of the first is higher: 210 °C for the first, 170 °C for the second.

For `COc1ccc2c(c1)c1cc(-c3ccc(Cl)cc3Cl)c(=O)n(C)c1n2C` [Compound 21, 3-(2,4-Dichlorophenyl)-6-methoxy-1,9-dimethyl-1,9-dihydro-2H-pyrido[2,3-b]indol-2-one], the melting point was 130 °C.
